Reference: patent publication US20060013804A1, “Modulation of stem cell differentiation by modulation of caspase-3 activity” (Ottawa Health Research Institute, priority 2002, published 2006)

Tested on: neurospheres
Test: Cytotoxicity observed in neurosphere cultures
Assay type: cell-based, mouse
Details: neurosphere experiments
From the text: Under growth conditions, neurospheres readily stained for nestin, an intermediate protein highly expressed in early neuronal progenitors (Lendahl et al., Cell 60, 585-595). […] Subsequently, we compared neural differentiation without caspase 3 activity. […] Increased expression of GFAP, MBP are characteristic with the early formation of astrocytes and oligodendrocytes respectively (Gage, F. H. (2000) Science 287, 1433-1438).

## CC(=O)N[C@@H](CC(=O)O)C(=O)N[C@@H](CCC(=O)O)C(=O)N[C@H](C(=O)N[C@H](C=O)CC(=O)O)C(C)C [Ac-DEVD-CHO]
  cytotoxicity: high levels of cytotoxicity
